Test results: PubChem BioAssay AID256 (DTP/NCI, 2004)
Where “and” joins values, the source holds several entries; their conditions need not be identical. Equal entries are not always repeated. Inconclusive results and toxic doses are left out.

System: CD2F1 mice, L1210 leukemia ip, survival T/C
Assay: NCI In Vivo Anticancer Drug Screen. Data for tumor model L1210 Leukemia (intraperitoneal) in CD2F1 (CDF1) mice
Details: higher = longer survival
In short: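 Ratio T/C, where T is the treated-group value and C the vehicle-dosed control value, from mice implanted with a transplantable tumor.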

[1] = endpoint: mean survival time, dose: 50.0 mg/kg/injection, schedule: Q01DX009 (ip), vehicle: saline with Tween-80
[2] = endpoint: mean survival time, dose: 100.0 mg/kg/injection, schedule: Q01DX009 (ip), vehicle: saline with Tween-80
[3] = endpoint: mean survival time, dose: 100.0 mg/kg/injection, schedule: Q04DX003 (ip), vehicle: saline with Tween-80
[4] = endpoint: mean survival time, dose: 200.0 mg/kg/injection, schedule: Q04DX003 (ip), vehicle: saline with Tween-80
[5] = endpoint: mean survival time, dose: 200.0 mg/kg/injection, schedule: Q01DX009 (ip), vehicle: saline with Tween-80
[6] = endpoint: mean survival time, dose: 400.0 mg/kg/injection, schedule: Q01DX009 (ip), vehicle: saline with Tween-80
[7] = endpoint: mean survival time, dose: 400.0 mg/kg/injection, schedule: Q04DX003 (ip), vehicle: saline with Tween-80

Question: With `Cc1c(C(=O)O)nc(CC(O)C(Cl)(Cl)Cl)[nH]c1=O` (configuration not stated) as the molecule, how does the T/C (endpoint: mean survival time, dose: 25.0 mg/kg/injection, schedule: Q01DX005 (ip), vehicle: other) read?
Answer: The T/C was 106 % of control.

Question: And the T/C (endpoint: mean survival time, dose: 50.0 mg/kg/injection, schedule: Q01DX005 (ip), vehicle: other)?
Answer: The T/C was 101 % of control.

Question: What about the T/C (endpoint: mean survival time, dose: 100.0 mg/kg/injection, schedule: Q01DX005 (ip), vehicle: other) of the same molecule?
Answer: Its T/C is 101 % of control.

Question: What about the T/C (endpoint: mean survival time, dose: 200.0 mg/kg/injection, schedule: Q01DX005 (ip), vehicle: other) of the same molecule?
Answer: The T/C was 103 % of control.

Question: What about the T/C (endpoint: mean survival time, dose: 400.0 mg/kg/injection, schedule: Q01DX005 (ip), vehicle: other) of the same molecule?
Answer: Its T/C is 95 % of control.

Question: For `O=C(Nc1ccc(C2=NCCN2)cc1)c1ccc(C(=O)Nc2ccc(C3=NCCN3)cc2)c(Cl)c1`, which T/C (endpoint: mean survival time, dose: 0.78 mg/kg/injection, schedule: Q01DX009 (ip), vehicle: saline with Tween-80) is on record?
Answer: The T/C was 104 % of control.

Question: What about the T/C (endpoint: mean survival time, dose: 1.56 mg/kg/injection, schedule: Q01DX009 (ip), vehicle: saline with Tween-80) of the same molecule?
Answer: The T/C was 104 % of control and 110 % of control and 114 % of control.

Question: What about the T/C (endpoint: mean survival time, dose: 2.5 mg/kg/injection, schedule: Q01DX009 (ip), vehicle: saline) of the same molecule?
Answer: The T/C was 110 % of control.

Question: What about the T/C (endpoint: mean survival time, dose: 5.0 mg/kg/injection, schedule: Q01DX009 (ip), vehicle: saline) of the same molecule?
Answer: The T/C was 110 % of control.

Question: And the T/C (endpoint: mean survival time, dose: 8.0 mg/kg/injection, schedule: Q01DX008 (iv), vehicle: water)?
Answer: The T/C was 104 % of control.

Question: And the T/C (endpoint: mean survival time, dose: 12.5 mg/kg/injection, schedule: Q01DX009 (ip), vehicle: saline with Tween-80)?
Answer: The T/C was 203 % of control.

Question: What about the T/C (endpoint: mean survival time, dose: 20.0 mg/kg/injection, schedule: Q01DX009 (ip), vehicle: saline) of the same molecule?
Answer: Its T/C is 179 % of control.

Question: What about the T/C (endpoint: mean survival time, dose: 25.0 mg/kg/injection, schedule: Q01DX009 (ip), vehicle: saline with Tween-80) of the same molecule?
Answer: Its T/C is 250 % of control.

Question: What about the T/C (endpoint: mean survival time, dose: 40.0 mg/kg/injection, schedule: Q01DX009 (ip), vehicle: saline) of the same molecule?
Answer: The T/C was 234 % of control.

Question: What about the T/C [1] of the same molecule?
Answer: Its T/C is 86 % of control and 92 % of control.

Question: What about the T/C (endpoint: median survival time, dose: 10.0 mg/kg/injection, schedule: Q04DX003 (ip), vehicle: saline with Tween-80) of the same molecule?
Answer: The T/C was 113 % of control.

Question: And the T/C (endpoint: median survival time, dose: 40.0 mg/kg/injection, schedule: Q04DX003 (ip), vehicle: saline with Tween-80)?
Answer: The T/C was 162 % of control.

Question: And the T/C (endpoint: median survival time, dose: 80.0 mg/kg/injection, schedule: Q04DX003 (ip), vehicle: saline with Tween-80)?
Answer: Its T/C is 228 % of control.

Question: `CC(C)CNC(=O)c1ccc(N=NN(C)Cc2ccncc2)cc1` was tested. Which T/C [1] did it give?
Answer: The T/C was 104 % of control.

Question: What about the T/C [2] of the same molecule?
Answer: Its T/C is 122 % of control.

Question: And the T/C [3]?
Answer: The T/C was 105 % of control.

Question: What about the T/C [4] of the same molecule?
Answer: Its T/C is 117 % of control.

Question: With `O=C(O)c1ccc(C(=O)O)c(C(=O)O)c1.[NH-]C1CCCCCC1[NH-].[Pt+2]` as the molecule, how does the T/C (endpoint: mean survival time, dose: 3.75 mg/kg/injection, schedule: Q04DX003 (ip), vehicle: sodium bicarbonate) read?
Answer: Its T/C is 159 % of control.

Question: What about the T/C (endpoint: mean survival time, dose: 7.5 mg/kg/injection, schedule: Q04DX003 (ip), vehicle: sodium bicarbonate) of the same molecule?
Answer: Its T/C is 156 % of control and 250 % of control.

Question: What about the T/C (endpoint: mean survival time, dose: 15.0 mg/kg/injection, schedule: Q04DX003 (ip), vehicle: sodium bicarbonate) of the same molecule?
Answer: Its T/C is 200 % of control and 219 % of control.

Question: And the T/C (endpoint: mean survival time, dose: 30.0 mg/kg/injection, schedule: Q04DX003 (ip), vehicle: sodium bicarbonate)?
Answer: The T/C was 105 % of control.

Question: `COc1cc2ccc3c(c2cc1OC)CCc1cn[nH]c1-3` was tested. Which T/C (endpoint: mean survival time, dose: 100.0 mg/kg/injection, schedule: Q04DX002 (ip), vehicle: saline with Tween-80) did it give?
Answer: The T/C was 103 % of control.

Question: What about the T/C (endpoint: mean survival time, dose: 200.0 mg/kg/injection, schedule: Q04DX002 (ip), vehicle: saline with Tween-80) of the same molecule?
Answer: The T/C was 107 % of control.

Question: What about the T/C (endpoint: mean survival time, dose: 400.0 mg/kg/injection, schedule: Q04DX002 (ip), vehicle: saline with Tween-80) of the same molecule?
Answer: Its T/C is 103 % of control.

Question: What does the source list for `CC(=O)NCCN=Cc1ccccc1`?
Answer: T/C [2]: 97 % of control; T/C [3]: 95 % of control; T/C [5]: 95 % of control; T/C [4]: 95 % of control; T/C [6]: 97 % of control; T/C [7]: 97 % of control

Question: Which results are given for `CN(CCO)c1c(Cl)c(=O)oc2ccc(Cl)cc12`?
Answer: T/C [2]: 97 % of control; T/C [5]: 101 % of control; T/C [6]: 106 % of control

Question: How did the T/C (endpoint: mean survival time, dose: 100.0 mg/kg/injection, schedule: Q01DX001 (ip), vehicle: saline) turn out when `CCCCCCCCCCCCCCCCOC(=O)Nc1ccc(S(=O)(=O)N(CCC)CCC)cc1` was run?
Answer: The T/C was 94 % of control.

Question: And the T/C (endpoint: mean survival time, dose: 200.0 mg/kg/injection, schedule: Q01DX001 (ip), vehicle: saline)?
Answer: The T/C was 96 % of control.

Question: And the T/C (endpoint: mean survival time, dose: 400.0 mg/kg/injection, schedule: Q01DX001 (ip), vehicle: saline)?
Answer: The T/C was 92 % of control.

Question: Which results are given for `CO/C=C1\Cc2cc(OC)c(OC)cc2C1=O`?
Answer: T/C [3]: 100 % of control; T/C [4]: 94 % of control; T/C [7]: 102 % of control

Question: What does the source list for `CC(C)c1ccc(C(O)C2CC2)cc1` (configuration not stated)?
Answer: T/C (endpoint: mean survival time, dose: 50.0 mg/kg/injection, schedule: Q01DX009 (ip), vehicle: saline): 100 % of control; T/C (endpoint: mean survival time, dose: 100.0 mg/kg/injection, schedule: Q01DX009 (ip), vehicle: saline): 100 % of control; T/C (endpoint: mean survival time, dose: 200.0 mg/kg/injection, schedule: Q01DX009 (ip), vehicle: saline): 96 % of control
